{
  "source": "patent US10328027B2",
  "about": "“Assisted particle size reduction process” (HOVIONE INTERNATIONAL LTD, priority 2014, dated 2019)",
  "assay": "Particle size distribution (Dv10, Dv50, Dv90, span) of processed API particles",
  "assay_type": "physicochemical",
  "source_text": "The most common approach for expressing particle size results is to report Dv10, Dv50, and Dv90 values based on a volume distribution. The span calculation [(Dv90−Dv10)/Dv50] is the most common format to express distribution width.\nThe terms Dv10, Dv50, and Dv90 as discussed herein are known to those skilled in the art. Dv50 refers to the maximum particle diameter below which 50% of the sample volume exists. Dv90 refers to the maximum particle diameter below which 90% of the sample volume exists. Dv10 refers to the maximum particle diameter below which 10% of the sample volume exists. The term particle size distribution span refers to the result of the calculation [(Dv90−Dv10)/Dv50].",
  "key": {"[1]": {"conditions": "Comparison, process of WO2011131947 (water), product isolated by spray drying (45° C.)"}, "[2]": {"conditions": "Comparison, process of WO2011131947, suspension in anti-solvent water, after size reduction (750 bar, 45 cycles)"}, "[3]": {"conditions": "Example 2, invention, product isolated by spray drying (45° C.)"}, "[4]": {"conditions": "Example 2, invention, suspension in water/acetone, after particle size reduction (microfluidizer 750 bar, 45 cycles)"}, "[5]": {"conditions": "Example 2, invention, water/acetone, after aging for 22 hours"}, "[6]": {"conditions": "Example 1, after aging for 20 hours without stirring at room temperature"}, "[7]": {"conditions": "Example 1, product isolated by spray drying (100° C.) after distillation to approx. 100% heptane"}, "[8]": {"conditions": "Example 1, suspension in n-heptane/ethyl acetate, after particle size reduction (microfluidizer 400 bar, 50 cycles)"}},
  "data": [
    {"smiles": "CCC(=O)O[C@]1(C(=O)SCF)[C@H](C)C[C@H]2[C@@H]3C[C@H](F)C4=CC(=O)C=C[C@]4(C)[C@@]3(F)[C@@H](O)C[C@@]21C", "note": "[Fluticasone propionate]", "values": [
      {"measurement": "Dv10", "setting": "[1]", "result": 0.99, "unit": "μm"},
      {"measurement": "Dv50", "setting": "[1]", "result": 1.94, "unit": "μm"},
      {"measurement": "Dv90", "setting": "[1]", "result": 3.60, "unit": "μm"},
      {"measurement": "span [(Dv90-Dv10)/Dv50]", "setting": "[1]", "result": 1.4},
      {"measurement": "Dv10", "setting": "[2]", "result": 1.28, "unit": "μm"},
      {"measurement": "Dv50", "setting": "[2]", "result": 2.44, "unit": "μm"},
      {"measurement": "Dv90", "setting": "[2]", "result": 4.45, "unit": "μm"},
      {"measurement": "span [(Dv90-Dv10)/Dv50]", "setting": "[2]", "result": 1.3},
      {"measurement": "Dv10", "setting": "[3]", "result": 1.38, "unit": "μm"},
      {"measurement": "Dv50", "setting": "[3]", "result": 2.42, "unit": "μm"},
      {"measurement": "Dv90", "setting": "[3]", "result": 4.18, "unit": "μm"},
      {"measurement": "span [(Dv90-Dv10)/Dv50]", "setting": "[3]", "result": 1.2},
      {"measurement": "Dv10", "setting": "[4]", "result": 0.92, "unit": "μm"},
      {"measurement": "Dv50", "setting": "[4]", "result": 1.81, "unit": "μm"},
      {"measurement": "Dv90", "setting": "[4]", "result": 3.39, "unit": "μm"},
      {"measurement": "span [(Dv90-Dv10)/Dv50]", "setting": "[4]", "result": 1.4},
      {"measurement": "Dv10", "setting": "[5]", "result": 1.42, "unit": "μm"},
      {"measurement": "Dv50", "setting": "[5]", "result": 2.53, "unit": "μm"},
      {"measurement": "Dv90", "setting": "[5]", "result": 4.43, "unit": "μm"},
      {"measurement": "span [(Dv90-Dv10)/Dv50]", "setting": "[5]", "result": 1.2}
    ]},
    {"smiles": "C[N+]1(C)[C@@H]2C[C@@H](OC(=O)C(O)(c3cccs3)c3cccs3)C[C@H]1[C@@H]1O[C@@H]12", "note": "[Tiotropium Bromide]", "values": [
      {"measurement": "Dv10", "setting": "[6]", "result": 0.78, "unit": "μm"},
      {"measurement": "Dv50", "setting": "[6]", "result": 3.33, "unit": "μm"},
      {"measurement": "Dv90", "setting": "[6]", "result": 7.45, "unit": "μm"},
      {"measurement": "span [(Dv90-Dv10)/Dv50]", "setting": "[6]", "result": 2.0},
      {"measurement": "Dv10", "setting": "[7]", "result": 0.83, "unit": "μm"},
      {"measurement": "Dv50", "setting": "[7]", "result": 3.02, "unit": "μm"},
      {"measurement": "Dv90", "setting": "[7]", "result": 7.05, "unit": "μm"},
      {"measurement": "span [(Dv90-Dv10)/Dv50]", "setting": "[7]", "result": 2.1},
      {"measurement": "Dv10", "setting": "[8]", "result": 0.67, "unit": "μm"},
      {"measurement": "Dv50", "setting": "[8]", "result": 2.98, "unit": "μm"},
      {"measurement": "Dv90", "setting": "[8]", "result": 7.09, "unit": "μm"},
      {"measurement": "span [(Dv90-Dv10)/Dv50]", "setting": "[8]", "result": 2.2}
    ]}
  ]
}
